# Test results reported in patent US20220211728A1, “ALKYL-TPP COMPOUNDS FOR MITOCHONDRIA TARGETING AND ANTI-CANCER TREATMENTS” (LUNELLA BIOTECH, INC., priority 2019, published 2022).
# pIC50: −log10 of the molar value. Entries after “also recorded” stand apart in the source; their conditions may differ. Where two headings read alike, the source gives them in different places.
# Assays:
# [1] = system: MCF-7 breast cancer cells; experiment: mammosphere formation assay (CSC propagation) in MCF-7 cells; assay type: cell-based, human; conditions: for pIC50: Homo sapiens, MCF7
# Protocol: (§1) The mammosphere assay was performed as follows. A single cell suspension of MCF-7 or MDA-MB-231 cells was prepared using enzymatic (1× Trypsin-EDTA, Sigma Aldrich), and manual disaggregation (25 gauge needle). Cells were then plated at a density of 500 cells/cm^2 in mammosphere medium (DMEM-F12/B27/20-ng/ml EGF/PenStrep) in nonadherent conditions, in culture dishes coated with (2-hydroxyethylmethacrylate) (poly-HEMA, Sigma Aldrich), in the presence of treatments, were required. Cells were grown for 5 days and maintained in a humidified incubator at 37° C. at an atmospheric pressure in 5% (v/v) carbon dioxide/air. After 5 days for culture, spheres >50 μm were counted using an eye piece graticule, and the percentage of cells plated which formed spheres was calculated and is referred to as percentage mammosphere formation. Mammosphere assays were performed in triplicate and repeated three times independently.
# [2] = system: MCF-7 breast cancer cells; conditions: b-TPP, identified in International Application PCT/US2018/062174; read-out: IC-50 inhibiting CSC propagation; cited from earlier work
# [3] = system: MCF-7 cells; experiment: Seahorse XFe96 metabolic flux analysis, extracellular acidification rate (ECAR); assay type: cell-based, human; conditions: MCF-7, d-TPP 50 nM to 500 nM
# Protocol: (§2) The extracellular acidification rate (ECAR) and real-time oxygen consumption rate (OCR) assays for metabolic flux analysis were performed using the Seahorse Extracellular Flux (XFe-96) analyzer (Seahorse Bioscience). Briefly, 15,000 MCF-7 cells per well were seeded into XFe-96 well cell culture plates, and incubated overnight to allow attachment. Cells were then treated with increasing concentrations of d-TPP (50 nM+500 nM) for 24 hours. Vehicle alone (DMSO) control cells were processed in parallel. Then, cells were washed in pre-warmed XF assay media (or for OCR measurement, XF assay media supplemented with 10 mM glucose, 1 mM Pyruvate, 2 mM L-glutamine and adjusted at 7.4 pH). Cells were then maintained in 175 μL/well of XF assay media at 37 C, in a non-CO2 incubator for 1 hour. During the incubation time, 5 μL of 80 mM glucose, 9 μM oligomycin, and 1 M 2-deoxyglucose (for ECAR measurement) or 10 μM oligomycin, 9 μM FCCP, 10 μM Rotenone, 10 μM antimycin A (for OCR measurement), were loaded in XF assay media into the injection ports in the XFe-96 sensor cartridge. Data set was analyzed by XFe-96 software after the measurements were normalized by protein content (SRB). All experiments were performed three times independently.
# [4] = system: human breast tumors initiated from the MDA-MB-231 cell line; experiment: CAM assay, tumor growth and metastasis; assay type: in vivo, chicken embryos
# Protocol: (§3) Further evaluation of both efficacy and toxicity was performed on human breast tumors initiated from the MDA-MB-231 cell line in chicken embryos using the CAM Model available from Inovotion (La Tronche, France). […] With respect to the CAM assay, fertilized eggs were incubated at 37.5° C. with 50% relative humidity for 9 days. The graft was dropped into each egg through a small hole drilled through the eggshell into the air sac, and a 1 cm^2 window cut in the eggshell above the CAM. This grafting process was used for each egg in a test group. Because the grafting process is an invasive surgical act, some death is expected to occur during hours after the tumor graft. For the data reported herein, at least 10 eggs per test group were successfully grafted.
# The MDA-MB-231 tumor cell line was cultivated in DMEM medium supplemented with 10% FBS and 1% penicillin/streptomycin. After the 9-day incubation period, cells were detached with trypsin, washed with complete medium, and suspended in a graft medium. An inoculum of 1.10^6 cells was added onto the CAM of each egg, and then eggs were randomized into test groups. Tumors were detectable within one day of the graft. The negative control group was a 0.125% DMSO in PBS, and d-TPP groups for concentrations of 6.25 μM, […], were evaluated. Each egg in a group was treated 8 times per day. After 8 days of treatments, tumor growth was quantitatively evaluated. The upper portion of the CAM (with the tumor) was removed, washed in a PBS buffer, and then directly transferred in PFA for a 48-hour fixation. Tumors were then carefully cut away from normal CAM tissue and weighed. For all quantitative data relating to the chicken egg evaluation, a one-way ANOVA (with post-tests between each couple of groups) was performed with the specialized computer software Prism® (GraphPad Software). For all analyses, statistical difference between groups is made visible on graphs by the presence of stars with the following meaning: no asterisk means p>0.05; * means […]; ** means 0.01≥p>0.001; and *** means 0.001≥p. […] Consistent with the evaluations described above, the d-TPP tumor growth inhibition effect was dose-dependent.
# Metastatic invasion was also quantitatively evaluated. A 1 cm^2 portion of the lower CAM was collected to evaluate the number of metastatic cells in 8 samples per group (n=8). Genomic DNA was extracted from the CAM using a commercial kit, and analyzed by qPCR with specific primers for Human Alu sequences. Calculation of Cq for each sample, mean Cq and relative amounts of metastases for each group were directly managed by the Bio-Rad® CFX Maestro software. […]
# [5] = system: chicken embryos; experiment: CAM assay, embryonic tolerability; assay type: in vivo
# Protocol: as §3
# Embryonic tolerability of the d-TPP treatments were also quantitatively evaluated. Embryonic viability was checked daily following grating and during treatment. The number of dead embryos was also counted on the final day, to evaluate treatment-induced embryo toxicity. […] It should be appreciated by those having an ordinary level of skill in the art that toxicity should be analyzed for establishing a dosing regimen.
# [6] = system: normal human fibroblasts (hTERT-BJ1); experiment: cell viability by sulphorhodamine (SRB) assay in normal fibroblasts; assay type: cell-based
# Protocol: (§4) Cell viability was assessed in MCF-7 and hTERT-BJ1 cells by sulphorhodamine (SRB) assay, based on the measurement of cellular protein content. After treatment with d-TPP (50 nM+1 μM) for 24, 48 or 72 hours, cells were fixed with 10% trichloroacetic acid (TCA) for 1 hour in cold room, and dried overnight at room temperature. Then, cells were incubated with SRB for 15 min, washed twice with 1% acetic acid, and air dried for at least 1 hour. Finally, the protein-bound dye was dissolved in 10 mM Tris pH 8.8 solution and read using a plate reader at 540 nm.
# [7] = system: MDA-MB-231 triple negative breast cancer cells; experiment: mammosphere formation assay (CSC propagation) in MDA-MB-231 cells; assay type: cell-based, human
# Protocol: as §1
# [8] = system: MCF-7 breast cancer cells; experiment: cell viability by sulphorhodamine (SRB) assay in MCF-7 cells; assay type: cell-based; conditions: Homo sapiens, MCF7, 250 nM, 500 nM and 1 μM, read-out: reduction in cell viability
# Protocol: as §4
# [9] = system: adherent MCF-7 cells; experiment: xCELLigence real-time cell analysis of cell proliferation; assay type: cell-based, human
# Protocol: The xCELLigence system was used to analyze the kinetics of d-TPP action on cell proliferation of adherent MCF-7 cells. The xCELLigence system evaluates the real-time, label-free monitoring of cell health and behavior, by measuring the electrical impedance, whose magnitude is dependent on the number of cells. Real-time cell analysis was performed for 48-hour and 72-hour treatment with d-TPP, at concentrations of 50 nM, 100 nM, and 250 nM. The control was vehicle-only. The results for the 48-hour d-TPP treatment are shown in FIGS. 8A and 8B, and FIGS. 8C and 8D show results for the 72-hour d-TPP treatment.
# The xCELLigence Real-time cell analysis (RTCA) System was sourced from ACEA Biosciences Inc. The xCELLigence RTCA system provides a useful approach for the real-time monitoring of the biological status of adherent cells, by measuring the electrical impedance, expressed as a cell index (CI) value. 5000 MCF-7 cells were seeded in a 16-well plate (E-plate). 24 hours after seeding, cells were treated with vehicle or increasing concentrations of d-TPP (from 50 nM to 250 nM) for additional 48 hours or 72 hours. RTCA was performed by measuring the cell-induced electrical impedance values, which were automatically recorded every 15 min for 96 h. This approach allows the quantification of the onset and kinetics of the cellular response. Experiments were repeated three times independently, using quadruplicate samples for each condition.
# [10] = system: MCF-7 cells; experiment: Seahorse XFe96 metabolic flux analysis, oxygen consumption rate (OCR); assay type: cell-based, human
# Protocol: as §2
# [11] = Berberine chloride 10 μM with d-TPP 100 nM
smiles,measurement,setting,value
"O=CC[C@@H](O)[C@H](O)[C@H](O)CO [2-DG, 2-deoxy-D-glucose]",increase in the inhibitory effect of d-TPP alone,[1]; 2-DG 10 mM with d-TPP 100 nM,2 fold
same,residual mammosphere formation capability,[1]; 2-DG 20 mM with d-TPP 100 nM,< 10%
COc1ccc2cc3[n+](cc2c1OC)CCc1cc2c(cc1-3)OCO2 [Berberine chloride],reduction (CSC formation),[1]; Berberine chloride 1 μM with d-TPP 100 nM,60%
same,increase in efficacy of d-TPP,[1]; [11],~5 fold
same,inhibition of CSC formation,[1]; [11],over 80%
O=C(Nc1ccc([N+](=O)[O-])cc1Cl)c1cc(Cl)ccc1O [Niclosamide],increase in efficacy of d-TPP on CSC activity,[1]; Niclosamide 250 nM with d-TPP 100 nM,~2 fold
same,increase in efficacy of d-TPP on CSC activity,[1]; Niclosamide 500 nM with d-TPP 100 nM,~3 fold
"O=C1O[C@H]([C@@H](O)CO)C(O)=C1O [Vitamin C, Ascorbic Acid]",pIC50,"[1]; Vitamin C separately (without d-TPP), read-out: IC-50 MCF-7 CSC propagation",3.00
same,inhibition of propagation of CSCs,[1]; Vitamin C 250 μM in combination with d-TPP at 100 nM,over 50%
same,inhibition of propagation of CSCs,[1]; Vitamin C 500 μM in combination with d-TPP at 100 nM,over 70%
same,increase in CSC sensitivity to Vitamin C caused by d-TPP,[1]; d-TPP 100 nM,~4 fold
"C(=CC[P+](c1ccccc1)(c1ccccc1)c1ccccc1)C[P+](c1ccccc1)(c1ccccc1)c1ccccc1 [b-TPP, 2-butene-1,4-bis-TPP]",pIC50,[2],~6.30
"CCCCCCCCCCC[P+](c1ccccc1)(c1ccccc1)c1ccccc1 [d-TPP, dodecyl-TPP]",pIC50,"[1]; MCF-7, read-out: concentration necessary to half CSC activity",~6.60
same,potency in inhibiting mammosphere formation / CSC propagation compared with b-TPP (other TPP-derivatives),[1]; MCF-7,twice as potent; also recorded: more than twice as potent
same,reduction in mammosphere formation,"[1]; MCF-7, d-TPP 50 nM and 100 nM",20%
same,reduction in CSC propagation (mammosphere formation),"[1]; MCF-7, d-TPP 500 nM and 1 μM",80%
same,glycolysis (ECAR),[3],substantially and dose-dependently increased
same,inhibition of metastasis,[4]; 25 μM concentration,~75%
same,inhibition of tumor growth,[4]; 25 sM concentration,~40%
same,tumor growth (tumor weight) compared to the negative control,[4]; medium (25.0 μM) and high (62.5 μM) doses,significantly inhibited
same,metastatic invasion (qPCR for Alu sequences in the lower CAM) compared to the negative control,[4]; medium dose,metastasis regression
same,embryo toxicity,[5]; higher dose,resulted in mortality
same,embryo toxicity,[5]; medium and low doses,did not exhibit toxicity
same,toxicity to hTERT-BJ1 cells,[6]; 50 nM and 100 nM,no toxicity
same,cell viability of hTERT-BJ1 cells,"[6]; 250 nM, 500 nM and 1 μM",decreased
same,inhibition at 1 µM,"[7]; Homo sapiens, MDA-MB-231, d-TPP 1 μM",~80%
same,effect on CSC propagation (mammosphere formation),"[7]; MDA-MB-231, d-TPP 50 nM (lowest concentration tested)",showed an inhibitory effect
same,cytotoxicity at 0.25 µM,"[8]; MCF-7, 24 hours",~30%
same,cytotoxicity at 0.25 µM,"[8]; MCF-7, 72 hours",~80%
same,effect on cell number (cell index),"[9]; MCF-7, 50 nM d-TPP, 72 h treatment",trend of reduced cell number
same,effect on cell proliferation (cell index),"[9]; MCF-7, 100 nM d-TPP",main cytostatic effect
same,cytotoxicity (cell index),"[9]; MCF-7, 250 nM d-TPP",Cytotoxicity was present
same,pIC50,"[10]; Homo sapiens, MCF7, MCF-7, 24 hours treatment, read-out: IC-50 basal mitochondrial respiration",~6.60
same,oxygen consumption rate (OCR),"[10]; MCF-7, d-TPP 50 nM",dramatic reduction
same,ATP levels,"[10]; MCF-7, d-TPP 50 nM to 500 nM",dose-dependently depleted
